Key:
RAW264.7 [1] = experiment: Cytotoxicity against mouse RAW264.7 cells after 24 hrs; type: cell-based; details: raw264.7, 24 h
RAW264.7 [2] = experiment: Inhibition of LPS-induced NO production in mouse RAW264.7 cells after 24 hrs by Griess reaction; type: functional, cell-based; details: RAW264.7, 24 h

Row | SMILES | Activity (RAW264.7 [1]) | IC50 (RAW264.7 [2]) [µM]
1 | CCCCO[C@]12C[C@]3(C)OC(O1)[C@]1(COC(=O)c4ccccc4)[C@@H]2C[C@@]31O[C@@H]1O[C@H](CO)[C@@H](O)[C@H](O)[C@H]1O | Non-toxic | > 100
2 | CO[C@]12C[C@]3(C)O[C@H](O1)[C@]1(COC(=O)c4ccccc4)[C@@H]2C[C@]13O[C@@H]1O[C@H](COC(=O)c2ccccc2)[C@@H](O)[C@H](O)[C@H]1O | Non-toxic | 41.9
3 | CO[C@]12C[C@]3(C)O[C@H](O1)[C@]1(COC(=O)c4ccccc4)[C@@H]2C[C@]13O[C@@H]1O[C@H](CO)[C@@H](O)[C@H](O)[C@H]1O | Non-toxic | > 100
4 | CO[C@]12C[C@]3(C)O[C@H](O1)[C@]1(COC(=O)c4ccc(O)cc4)[C@H]2C[C@@]13O[C@@H]1O[C@H](CO)[C@@H](O)[C@H](O)[C@H]1O | Non-toxic | > 100
5 | CO[C@]12C[C@]3(C)O[C@H](O1)[C@]1(COC(=O)c4ccc(O)cc4)[C@H]2C[C@@]13O[C@@H]1O[C@H](COC(=O)c2cc(O)c(O)c(O)c2)[C@@H](O)[C@H](O)[C@H]1O | Non-toxic | > 100
6 | CO[C@@H]1O[C@@]2(C)CC(=O)[C@@H]3C[C@@]2(O[C@@H]2O[C@H](CO)[C@@H](O)[C@H](O)[C@H]2O)[C@]13COC(=O)c1ccc(O)cc1 | Non-toxic | –
7 | CCCCO[C@H]1O[C@@]2(C)CC(=O)[C@@H]3C[C@@]2(O[C@@H]2O[C@H](CO)[C@@H](O)[C@H](O)[C@H]2O)[C@]13COC(=O)c1ccc(O)cc1 | Non-toxic | > 100
8 | CCCCO[C@H]1O[C@@]2(C)CC(=O)[C@@H]3C[C@@]2(O[C@@H]2O[C@H](CO)[C@@H](O)[C@H](O)[C@H]2O)[C@]13COC(=O)c1ccccc1 | Non-toxic | > 100
9 | CCCCO[C@]12C[C@]3(C)O[C@H](O1)[C@]1(COC(=O)c4ccc(O)cc4)[C@H]2C[C@@]13O[C@@H]1O[C@H](CO)[C@@H](O)[C@H](O)[C@H]1O | Non-toxic | > 100
10 | C[C@@]12C[C@@]3(O)O[C@@H](O1)[C@]1(CO)[C@H]3C[C@@]12O[C@@H]1O[C@H](CO)[C@@H](O)[C@H](O)[C@H]1O | Non-toxic | 74.2
11 | C[C@@]12C[C@@]3(O)O[C@@H](O1)[C@]1(COC(=O)c4ccccc4)[C@@H]3C[C@]12O[C@@H]1O[C@H](COC(=O)c2ccccc2)[C@@H](O)[C@H](O)[C@H]1O [BENZOYLPAEONIFLORIN] | Non-toxic | > 100
12 | C[C@@]12C[C@@]3(O)O[C@@H](O1)[C@]1(COC(=O)c4ccc(O)cc4)[C@H]3C[C@@]12O[C@@H]1O[C@H](COC(=O)c2cc(O)c(O)c(O)c2)[C@@H](O)[C@H](O)[C@H]1O [GALLOYLOXYPAEONIFLORIN] | Non-toxic | > 100
13 | C[C@@]12C[C@@]3(O)O[C@@H](O1)[C@]1(COC(=O)c4ccccc4)[C@@H]3C[C@]12O[C@@H]1O[C@H](COC(=O)c2cc(O)c(O)c(O)c2)[C@@H](O)[C@H](O)[C@H]1O [GALLOYLPAEONIFLORIN] | Non-toxic | 36.1
14 | COc1ccc(C(=O)OC[C@H]2O[C@@H](O[C@]34C[C@@H]5[C@@]3(COC(=O)c3ccc(O)cc3)[C@H]3O[C@]5(O)C[C@]4(C)O3)[C@H](O)[C@@H](O)[C@@H]2O)cc1 [MOUDANPIOSIDE B] | Non-toxic | > 100
15 | CC1=CC(=O)[C@@H]2C[C@@]1(O[C@@H]1O[C@H](CO)[C@@H](O)[C@H](O)[C@H]1O)[C@@]2(C)CO [MOUDANPIOSIDE F] | Non-toxic | 12.4
16 | COc1ccc(C(=O)OC[C@]23[C@H]4O[C@]5(O)C[C@](C)(O4)[C@@]2(O[C@@H]2O[C@H](CO)[C@@H](O)[C@H](O)[C@H]2O)C[C@H]35)cc1 [MUDANPIOSIDE D] | Non-toxic | > 100
17 | COc1cc(C(=O)OC[C@H]2O[C@@H](O[C@@]34C[C@H]5[C@@]3(CO)[C@H]3O[C@]5(O)C[C@]4(C)O3)[C@H](O)[C@@H](O)[C@@H]2O)ccc1O [MUDANPIOSIDE E] | Non-toxic | > 100
18 | C[C@@]12C[C@@]3(O)O[C@@H](O1)[C@]1(COC(=O)c4ccc(O)cc4)[C@H]3C[C@@]12O[C@@H]1O[C@H](COC(=O)c2ccc(O)cc2)[C@@H](O)[C@H](O)[C@H]1O [MUDANPIOSIDE H] | Non-toxic | > 100
19 | COc1cc(C(=O)OC[C@H]2O[C@@H](O[C@]34C[C@@H]5[C@@]3(COC(=O)c3ccccc3)[C@H]3O[C@]5(O)C[C@]4(C)O3)[C@H](O)[C@@H](O)[C@@H]2O)ccc1O [MUDANPIOSIDE J] | Non-toxic | > 100
20 | CO[C@H]1O[C@@]2(C)CC(=O)[C@@H]3C[C@@]2(O[C@@H]2O[C@H](CO)[C@@H](O)[C@H](O)[C@H]2O)[C@]13COC(=O)c1ccc(O)cc1 [OXYPAEONIDANIN] | Non-toxic | 90.9
21 | C[C@@]12C[C@@]3(OS(=O)O)O[C@@H](O1)[C@]1(COC(=O)c4ccc(O)cc4)[C@H]3C[C@@]12O[C@@H]1O[C@H](CO)[C@@H](O)[C@H](O)[C@H]1O [OXYPAEONIFLORIN SULFONATE] | Non-toxic | > 100
22 | C[C@@]12C[C@@]3(O)O[C@@H](O1)[C@]1(COC(=O)c4ccc(O)cc4)[C@H]3C[C@@]12O[C@@H]1O[C@H](CO)[C@@H](O)[C@H](O)[C@H]1O [OXYPAEONIFLORIN] | Non-toxic | –
23 | C[C@@]12C[C@@]3(O)O[C@@H](O1)[C@]1(COC(=O)c4ccc(O)cc4)[C@@H]3C[C@]12O[C@@H]1O[C@H](CO)[C@@H](O)[C@H](O)[C@H]1O [OXYPAEONIFLORIN] | – | > 100
24 | CO[C@H]1O[C@@]2(C)CC(=O)[C@H]3C[C@]2(O[C@@H]2O[C@H](COC(=O)c4ccccc4)[C@@H](O)[C@H](O)[C@H]2O)[C@]13COC(=O)c1ccccc1 [PAEONIDANIN A] | Non-toxic | > 100
25 | C[C@@]12CC(=O)[C@H]3C[C@]1(O)O[C@H](O2)[C@@H]3COC(=O)c1ccccc1 [PAEONIFLORIGENONE] | Non-toxic | 6.87
26 | C[C@@]12C[C@@]3(O)O[C@@H](O1)[C@]1(COC(=O)c4ccccc4)[C@H]3C[C@@]12O[C@@H]1O[C@H](COC(=O)c2ccccc2)[C@@H](O[C@@H]2O[C@H](CO)[C@@H](O)[C@H](O)[C@H]2O)[C@H](O)[C@H]1O [PAEONIFLORIN B] | Non-toxic | 31.2
27 | C[C@@]12C[C@@]3(O)O[C@@H](O1)[C@]1(COC(=O)c4ccccc4)[C@H]3C[C@@]12O[C@@H]1O[C@H](CO)[C@@H](O)[C@H](O)[C@H]1O [PAEONIFLORIN] | Non-toxic | > 100
